Test results from patent publication US20250353853A1, “FLAVIVIRUS INHIBITORS” (IRBM S.P.A., priority 2022, published 2025).
Structures can show the parent of a compound that is named as a salt.

System: ZIKV replicon in Vero cells
Experiment: ZIKV Replication Inhibition Assay (replicon, NanoLuc)
Conditions: Zika virus, Vero, 72 h, read-out: Zika Replicon EC50

Row | SMILES | EC50 [nM]
1 | Cc1ccncc1-c1ccc(C[n+]2cc([N-]C(=O)Nc3cccc(C(F)(F)F)c3)on2)cc1 [Example 85, (3-(4-(4-methylpyridin-3-yl)benzyl)-1,2,3-oxadiazol-3-ium-5-yl)((3-(trifluoromethyl)phenyl)carbamoyl)amide] | < 100
2 | Cc1ncccc1-c1ccc(C[n+]2cc([N-]C(=O)Nc3cccc(C(F)(F)F)c3)on2)cc1 [Example 92, (3-(4-(2-methylpyridin-3-yl)benzyl)-1,2,3-oxadiazol-3-ium-5-yl)((3-(trifluoromethyl)phenyl)carbamoyl)amide] | < 100
3 | C[C@H](Cc1ccccc1)[n+]1cc([N-]C(=O)Nc2cccc(C(F)(F)F)c2)on1 [Example 13, (R)-(3-(1-phenylpropan-2-yl)-1,2,3-oxadiazol-3-ium-5-yl)((3-(trifluoromethyl)phenyl)carbamoyl)amide] | 1000 to 20000
4 | O=C([N-]c1c[n+](-c2ccccc2)no1)Nc1cccc(C(F)(F)F)c1 [Example 7, (3-phenyl-1,2,3-oxadiazol-3-ium-5-yl)((3-(trifluoromethyl)phenyl)carbamoyl) amide] | 1000 to 20000
5 | NC[C@@H](Cc1ccccc1)[n+]1cc([N-]C(=O)Nc2cccc(C(F)(F)F)c2)on1 [Example 49, (R)-(3-(1-amino-3-phenylpropan-2-yl)-1,2,3-oxadiazol-3-ium-5-yl)((3-(trifluoromethyl)phenyl)carbamoyl)amide formate] | > 20000
6 | CC(Cc1ccccc1)[n+]1cc([N-]C(=O)Nc2cccc(C(F)(F)F)c2)on1 (centres unmarked) [Example 1, (3-(1-Phenylpropan-2-yl)-1,2,3-oxadiazol-3-ium-5-yl)((3-(trifluoromethyl)phenyl)carbamoyl)amide] | 1000 to 20000
7 | Cc1noc(C)c1-c1ccc(C[n+]2cc([N-]C(=O)Nc3cccc(C(F)(F)F)c3)on2)nc1 [Example 109, (3-((5-(3,5-dimethylisoxazol-4-yl)pyridin-2-yl)methyl)-1,2,3-oxadiazol-3-ium-5-yl)((3-(trifluoromethyl)phenyl)carbamoyl)amide] | < 100
8 | Cc1cc(NC(=O)[N-]c2c[n+](C(C)Cc3ccccc3)no2)cc(C(F)(F)F)c1 (centres unmarked) [Example 33, ((3-methyl-5-(trifluoromethyl)phenyl)carbamoyl)(3-(1-phenylpropan-2-yl)-1,2,3-oxadiazol-3-ium-5-yl)amide] | > 20000
9 | O=C([N-]c1c[n+](Cc2ccc(B(O)O)cn2)no1)Nc1cccc(C(F)(F)F)c1 [Example 122, (3-((5-boronopyridin-2-yl)methyl)-1,2,3-oxadiazol-3-ium-5-yl)((3-(trifluoromethyl)phenyl)carbamoyl)amide] | > 20000
10 | Cc1c(-c2ccc(C[n+]3cc([N-]C(=O)Nc4cccc(C(F)(F)F)c4)on3)cc2)cnn1C [Example 95, (3-(4-(1,5-dimethyl-1H-pyrazol-4-yl)benzyl)-1,2,3-oxadiazol-3-ium-5-yl)((3-(trifluoromethyl)phenyl)carbamoyl)amide] | 100 to 1000
11 | Cc1nn(C)cc1-c1ccc(C[n+]2cc([N-]C(=O)Nc3cccc(C(F)(F)F)c3)on2)cc1 [Example 96, (3-(4-(1,3-dimethyl-1H-pyrazol-4-yl)benzyl)-1,2,3-oxadiazol-3-ium-5-yl)((3-(trifluoromethyl)phenyl)carbamoyl)amide] | 100 to 1000
12 | O=C([N-]c1c[n+](Cc2ccc(-c3cncnc3)nc2)no1)Nc1cccc(C(F)(F)F)c1 [Example 103, (3-((6-(pyrimidin-5-yl)pyridin-3-yl)methyl)-1,2,3-oxadiazol-3-ium-5-yl)((3-(trifluoromethyl)phenyl)carbamoyl)amide] | 100 to 1000
13 | CC(Cc1ccccc1)[n+]1cc([N-]C(=O)Nc2cncc(C(F)(F)F)c2)on1 (centres unmarked) [Example 15, (3-(1-Phenylpropan-2-yl)-1,2,3-oxadiazol-3-ium-5-yl)((5-(trifluoromethyl)pyridin-3-yl)carbamoyl)amide] | 1000 to 20000
14 | CC(Cc1ccccc1)[n+]1cc([N-]C(=O)Nc2cc(C(F)(F)F)ccn2)on1 (centres unmarked) [Example 16, (3-(1-phenylpropan-2-yl)-1,2,3-oxadiazol-3-ium-5-yl)((4-(trifluoromethyl)pyridin-2-yl)carbamoyl)amide] | > 20000
